Experimental data reported in patent publication US4078079A, “Thiocyano-xanthate miticides” (Stauffer Chemical Company, priority 1976, dated 1978).
Converted amounts (≈) assume the structure as drawn. Read-outs that look alike come from different tables or passages of the source.

Columns and labels:
Escherichia coli = assay: In Vitro Agar Screening Tests (Example 5); assay type: cell-based; conditions: E. coli, nutrient agar, 37° C, read-out: Minimum Inhibitory Concentration
Protocol: (§1) This test measures the bactericidal and fungicidal properties of a compound when in contact with growing bacteria or fungi in an artificial medium. The test is conducted by adding 20 ml. portions of a suitable warm sterile agar solution into 20 × 100 Petri dishes. Then, the test compound, in 0.5% acetone solution, is added to the Petri dishes at levels of 1, 5, 10 and 50 ug/ml. and mixed with the warm mobile agar solution. The treated agar mixture is then allowed to come to room temperature and solidify. Cells of the chosen organism are streaked on the surface of the solidified agar and are then incubated for such lengths of time that untreated samples containing no toxicant show luxurious growth typical of the particular organism. This time varies from 24 hours to one week depending on the particular organism. The fungi are incubated at 30° C and the bacteria are incubated at 37° C. Nutrient agar is used as the medium in this test for the bacteria. Potato dextrose is used as the medium for the fungi. The extent of growth is noted at the end of the incubation period.

Aspergillus niger = assay: In Vitro Agar Screening Tests (Example 5); assay type: cell-based; conditions: A. niger, potato dextrose, 30° C, read-out: Minimum Inhibitory Concentration
Protocol: as §1

Staphylococcus aureus = assay: In Vitro Agar Screening Tests (Example 5); assay type: cell-based; conditions: S. aureus, nutrient agar, 37° C, read-out: Minimum Inhibitory Concentration
Protocol: as §1

Pencillium italicum = assay: In Vitro Agar Screening Tests (Example 5); assay type: cell-based; conditions: Penicillium italicum, P. italicum, potato dextrose, 30° C, read-out: Minimum Inhibitory Concentration
Protocol: as §1

[1] = system: Two-spotted Mite (2-SM) Tetranychus urticae (Koch) eggs; assay: Plant Dip Assay on Two-Spotted Mite, 2-SM Eggs; assay type: in vivo; conditions: infested Pinto Bean plants dipped 2-3 seconds, mortality after seven days, nymphs hatching from eggs
Excerpt: (§2) The Two-spotted Mite (2-SM) Tetranychus urticae (Koch) is subjected to evaluation tests for miticidal activity. Plant Dip Assay on Two-Spotted Mite [Tetranychus urticae (Koch)] Pinto Bean plants (Phaseolus sp.) approximately 10 cm tall, are transplanted into sandy loam soil in 3 inch clay pots and thoroughly infested with two-spotted mites of mixed ages and sexes. Twenty-four hours later the infested plants are inverted and dipped for 2-3 seconds in 50-50 acetone-water solutions of the test chemicals. Treated plants are held in the greenhouse, and seven days later mortality is determined for both the adult mites and the nymphs hatching from eggs which were on the plants at the time of treatment. Test concentrations range from 0.05% down to that at which 50% mortality occurs. The values obtained in this test are found in Table VII under the Columns 2SM-PE and 2SM-Eggs.

[2] = system: Two-spotted Mite (2-SM) Tetranychus urticae (Koch); assay: Plant Dip Assay on Two-Spotted Mite, 2-SM PE; assay type: in vivo; conditions: infested Pinto Bean plants dipped 2-3 seconds, mortality after seven days, adult mites
Excerpt: as §2

[3] = partial control at this concentration

| SMILES | MIC (Escherichia coli) [mg/L] | MIC (Aspergillus niger; [3]) [mg/L] | MIC (Staphylococcus aureus) [mg/L] | MIC (Pencillium italicum; [3]) [mg/L] | 2-SM Eggs: concentration at which 50% mortality occurs [1] | 2-SM PE: concentration at which 50% mortality occurs [2] | MIC (Aspergillus niger) [mg/L] | MIC (Pencillium italicum) [mg/L] | MIC (Staphylococcus aureus; [3]) [mg/L] | MIC (Escherichia coli; [3]) [mg/L] |
| --- | --- | --- | --- | --- | --- | --- | --- | --- | --- | --- |
| N#CSCSC(=S)OCCSc1ccc(Cl)cc1 [Compound 14] | > 50 | 1 (≈ 2.98 µM) | < 5 | 1 (≈ 2.98 µM) | .003% | .008% | – | – | – | – |
| N#CSCSC(=S)OCCOc1ccccc1 [Compound 2] | – | – | 10 (≈ 35 µM) | – | – | – | 1 (≈ 3.5 µM) | 0.25 (≈ 0.876 µM) | – | – |
| N#CSCSC(=S)OCCOc1ccc(Cl)cc1 [Compound 13] | > 50 | – | 5 (≈ 15.6 µM) | 0.5 (≈ 1.56 µM) | > .05% | > .05% | 1 (≈ 3.13 µM) | – | – | – |
| Cc1ccc(OCCOC(=S)SCSC#N)cc1 [Compound 10] | – | – | 10 (≈ 33.4 µM) | – | > .05% | > .05% | 1 (≈ 3.34 µM) | 0.25 (≈ 0.835 µM) | – | – |
| N#CSCSC(=S)OCCSc1ccc2ccccc2c1 [Compound 15] | > 50 | 5 (≈ 14.2 µM) | – | – | > .05% | > .05% | – | 5 (≈ 14.2 µM) | 0.25 (≈ 0.711 µM) | – |
| Cc1ccccc1OCCOC(=S)SCSC#N [Compound 12] | > 50 | – | 5 (≈ 16.7 µM) | 0.125 (≈ 0.417 µM) | .03% | .01% | 1 (≈ 3.34 µM) | – | – | – |
| CCCCOCCOC(=S)SCSC#N [Compound 6] | 50 (≈ 188 µM) | – | 5 (≈ 18.8 µM) | – | – | .03% | 0.5 (≈ 1.88 µM) | 0.5 (≈ 1.88 µM) | – | – |
| COc1ccc(OCCOC(=S)SCSC#N)cc1 [Compound 11] | 25 (≈ 79.3 µM) | – | 5 (≈ 15.9 µM) | 0.25 (≈ 0.793 µM) | .05% | .05% | 1 (≈ 3.17 µM) | – | – | – |
| N#CSCSC(=S)OCCOc1ccccc1Cl [Compound 8] | – | – | 10 (≈ 31.3 µM) | – | – | .05% | 5 (≈ 15.6 µM) | 0.5 (≈ 1.56 µM) | – | – |
| Cc1ccc(SCCOC(=S)SCSC#N)cc1 [Compound 17] | – | 1 (≈ 3.17 µM) | 5 (≈ 15.8 µM) | 0.5 (≈ 1.58 µM) | > .05% | > .05% | – | – | – | 50 (≈ 158 µM) |
| CCSCCOC(=S)SCSC#N [Compound 4] | 50 (≈ 197 µM) | – | 5 (≈ 19.7 µM) | – | – | – | 5 (≈ 19.7 µM) | 0.5 (≈ 1.97 µM) | – | – |
| N#CSCSC(=S)OCCSc1ccccc1 [Compound 9] | – | – | 5 (≈ 16.6 µM) | – | > .05% | > .05% | 1 (≈ 3.32 µM) | 1 (≈ 3.32 µM) | – | – |
| N#CSCSC(=S)OCCOc1ccc(Cl)cc1Cl [Compound 18] | – | – | 5 (≈ 14.1 µM) | – | – | – | 5 (≈ 14.1 µM) | 5 (≈ 14.1 µM) | – | – |
| CCCCOCCOCCOC(=S)SCSC#N [Compound 7] | – | – | 5 (≈ 16.2 µM) | – | – | .03% | 5 (≈ 16.2 µM) | 5 (≈ 16.2 µM) | – | – |
| COCCOC(=S)SCSC#N [Compound 3] | 50 (≈ 224 µM) | – | 50 (≈ 224 µM) | – | .01% | .01% | 5 (≈ 22.4 µM) | 0.5 (≈ 2.24 µM) | – | – |
